For test [1], the target named is T1, SARS-CoV-2 3CL^pro (Severe acute respiratory syndrome coronavirus 2 (2019-nCoV) (SARS-CoV-2), UniProt P0DTD1). The format is cell-based. To be noted: Western Blot. (Immunoblotting shows a protein as a band on a membrane.)
Test [2] has as its target T1, SARS-CoV-2 3CL^pro. In words: 3CL^pro inhibitory activity test (fluorescence resonance energy transfer). The test is classed as biochemical.
[3] abbreviates: HEK293E cells transfected with 3CL^pro plasmid, 24 h treatment, read-out: DC50.
Where [4] appears, read: HEK293E cells, 24 h, read-out: DC50 values.
The mark [5] stands for this setting: FRET, substrate Dabcyl-KTSAVLQSGFRKME-Edans 20 μM, enzyme 0.5 μM, read-out: IC50.

Experimental findings from patent US11530195B1, “Protacs targeting coronavirus 3CL protease and preparation method and application thereof” (SHAANXI PANLONG PHARMACEUTICAL CO., LTD., priority 2022, dated 2022) are described below.

Where two headings read alike, the source gives them in different places. Bounds are passed on as bounds.

As a reminder, the IC50 is the concentration needed to halve the response being measured. In the case of `Cn1cc2cc(/N=c3\[nH]c(=O)n(Cc4cn(CCC(=O)Nc5cccc6c5CN(C5CCC(=O)NC5=O)C6=O)nn4)c(=O)n3Cc3cc(F)c(F)cc3F)c(Cl)cc2n1` (stereo not shown) [Compound 1], the DC50 at SARS-CoV-2 3CL^pro [1] (setting [3]) was in the range of 100 to 1000 nM. The compound also came in with an IC50 against SARS-CoV-2 3CL^pro [2] of 100 to 1000 nM.

With `Cn1cc2cc(/N=c3\[nH]c(=O)n(Cc4cn(CCCCCC(=O)Nc5cccc6c5CN(C5CCC(=O)NC5=O)C6=O)nn4)c(=O)n3Cc3cc(F)c(F)cc3F)c(Cl)cc2n1` (stereo not shown) [Compound 4, (E)-6-(4-((4-((6-chloro-2-methyl-2H-indazol-5-yl)imino)-2,6-dioxy-3-(2,4,5-Trifluorobenzyl)-1,3,5-triazin-1-yl)methyl)-1H-1,2,3-triazol-1-yl)-N-(2-Preparation of (2,6-Dioxypiperidin-3-yl)-1-oxoisoquinolin-4-yl)hexanamide], the DC50 at SARS-CoV-2 3CL^pro [1] (setting [3]) and at SARS-CoV-2 3CL^pro [1] (setting [4]) was below 100 nM each time. The IC50 on SARS-CoV-2 3CL^pro [2] (setting [5]) was below 100 nM; at SARS-CoV-2 3CL^pro [2] (FRET, read-out: IC50 values), below 100 nM.

For `Cn1cc2cc(/N=c3\[nH]c(=O)n(Cc4cn(CCC(=O)Nc5cccc6c5C(=O)N(C5CCC(=O)NC5=O)C6=O)nn4)c(=O)n3Cc3cc(F)c(F)cc3F)c(Cl)cc2n1` (stereo not shown) [Compound 7, (E)-3-(4-((4-((6-chloro-2-methyl-2H-indazol-5-yl)imino)-2,6-dioxy-3-(2,4,5-Trifluorobenzyl)-1,3,5-triazin-1-yl)methyl)-1H-1,2,3-triazol-1-yl)-N-(2-Preparation of (2,6-dioxopiperidin-3-yl)-1,3-dioxoisoindolin-4-yl)propionamide], the DC50 on SARS-CoV-2 3CL^pro [1] (setting [3]) was 100 to 1000 nM. The same compound gave an IC50 against SARS-CoV-2 3CL^pro [2] of 100 to 1000 nM.

Consider `Cn1cc2cc(/N=c3\[nH]c(=O)n(Cc4cn(CCOCC(=O)Nc5cccc6c5CN(C5CCC(=O)NC5=O)C6=O)nn4)c(=O)n3Cc3cc(F)c(F)cc3F)c(Cl)cc2n1` (stereo not shown) [Compound 13, (E)-2-(2-(4-((4-((6-chloro-2-methyl-2H-indazol-5-yl)imino)-2,6-dioxy-3-(2,4,5-Trifluorobenzyl)-1,3,5-triazin-1-yl)methyl)-1H-1,2,3-triazol-1-yl)ethoxyyl)-N-(2-(2,6-dioxopiperidin-3-yl)-1-oxoisoquinolin-4-yl)acetamide], for which the DC50 at SARS-CoV-2 3CL^pro [1] (setting [3]) and at SARS-CoV-2 3CL^pro [1] (setting [4]) was below 100 nM each time. For the same compound, the IC50 on SARS-CoV-2 3CL^pro [2] is 100 to 1000 nM.

In the case of `Cn1cc2cc(/N=c3\[nH]c(=O)n(Cc4cn(CCOCCOCC(=O)Nc5cccc6c5CN(C5CCC(=O)NC5=O)C6=O)nn4)c(=O)n3Cc3cc(F)c(F)cc3F)c(Cl)cc2n1` (stereo not shown) [Compound 14, (E)-2-(2-(2-(4-((4-((6-chloro-2-methyl-2H-indazol-5-yl)imino)-2,6-Dioxy-3-(2,4,5-trifluorobenzyl)-1,3,5-triazin-1-yl)methyl)-1H-1,2,3-triazol-1-yl)ethoxy)ethoxy)-N-(2-(2,6-dioxopiperidin-3-yl)-1-oxoisoindolin-4-yl)acetamide], the DC50 at SARS-CoV-2 3CL^pro [1] (setting [3]) and on SARS-CoV-2 3CL^pro [1] (setting [4]) was below 100 nM each time.

Regarding `Cn1cc2cc(/N=c3\[nH]c(=O)n(Cc4cn(CCOCCOCCOCC(=O)Nc5cccc6c5CN(C5CCC(=O)NC5=O)C6=O)nn4)c(=O)n3Cc3cc(F)c(F)cc3F)c(Cl)cc2n1` (stereo not shown) [Compound 15, (E)-2-(2-(2-(2-(4-((4-((6-chloro-2-methyl-2H-indazol-5-yl)imino)-2,6-Dioxy-3-(2,4,5-trifluorobenzyl)-1,3,5-triazin-1-yl)methyl)-1H-1,2,3-triazole-1-yl)ethoxy)ethoxy)ethoxy)-N-(2-(2,6-dioxopiperidin-3-yl)-1-oxoisoindolin-4-yl)ethyl Preparation of amides], the DC50 on SARS-CoV-2 3CL^pro [1] (setting [3]) and on SARS-CoV-2 3CL^pro [1] (setting [4]) was below 100 nM throughout. At SARS-CoV-2 3CL^pro [2], the IC50 was in the range of 100 to 1000 nM.

For `Cn1cc2cc(/N=c3\[nH]c(=O)n(Cc4cn(CCOCCOCC(=O)Nc5cccc6c5C(=O)N(C5CCC(=O)NC5=O)C6=O)nn4)c(=O)n3Cc3cc(F)c(F)cc3F)c(Cl)cc2n1` (stereo not shown) [Compound 17], the DC50 on SARS-CoV-2 3CL^pro [1] (setting [3]) and on SARS-CoV-2 3CL^pro [1] (setting [4]) was below 100 nM in each case.

With “(E)-2-(2-(4-((4-((6-chloro-2-methyl-2H-indazol-5-yl)imino)-2,6-dioxy-3-(2,4,5-Trifluorobenzyl)-1,3,5-triazin-1-yl)methyl)-1H-1,2,3-triazol-1-yl)ethoxy yl)-N-(2-(2,6-dioxopiperidin-3-yl)-1,3-dioxoisoindolin-4-yl)acetamide [Compound 16]”, the DC50 at SARS-CoV-2 3CL^pro [1] (setting [3]) and at SARS-CoV-2 3CL^pro [1] (setting [4]) was below 100 nM throughout. Further, the IC50 at SARS-CoV-2 3CL^pro [2] (setting [5]) lay in the range of 100 to 1000 nM.

With “(E)-4-(4-((4-((6-chloro-2-methyl-2H-indazol-5-yl)imino)-2,6-dioxy-3-(2,4,5-Trifluorobenzyl)-1,3,5-triazin-1-yl)methyl)-1H-1,2,3-triazol-1-yl)-N-(2-Preparation of (2,6-dioxopiperidin-3-yl)-1,3-dioxoisoindolin-4-yl)butanamide [Compound 8]”, the DC50 at SARS-CoV-2 3CL^pro [1] (setting [3]) and on SARS-CoV-2 3CL^pro [1] (setting [4]) was below 100 nM each time. For the same compound, the IC50 is below 100 nM on SARS-CoV-2 3CL^pro [2] (setting [5]) and below 100 nM at SARS-CoV-2 3CL^pro [2] (FRET, read-out: IC50 values).

For “(E)-5-(4-((4-((6-chloro-2-methyl-2H-indazol-5-yl)imino)-2,6-dioxy-3-(2,4,5-Trifluorobenzyl)-1,3,5-triazin-1-yl)methyl)-1H-1,2,3-triazol-1-yl)-N-(2-Preparation of (2,6-dioxopiperidin-3-yl)-1,3-dioxoisoindolin-4-yl)pentanamide [Compound 9]”, the DC50 on SARS-CoV-2 3CL^pro [1] (setting [3]) and on SARS-CoV-2 3CL^pro [1] (setting [4]) was below 100 nM each time. In addition, the IC50 at SARS-CoV-2 3CL^pro [2] (setting [5]) is below 100 nM; on SARS-CoV-2 3CL^pro [2] (FRET, read-out: IC50 values), below 100 nM.

Regarding “(E)-6-(4-((4-((6-chloro-2-methyl-2H-indazol-5-yl)imino)-2,6-dioxy-3-(2,4,5-Trifluorobenzyl)-1,3,5-triazin-1-yl)methyl)-1H-1,2,3-triazol-1-yl)-N-(2-Preparation of (2,6-dioxopiperidin-3-yl)-1,3-dioxoisoindolin-4-yl)hexanamide [Compound 10]”, the DC50 at SARS-CoV-2 3CL^pro [1] (setting [3]) and at SARS-CoV-2 3CL^pro [1] (setting [4]) was below 100 nM in each case. Moreover, the IC50 at SARS-CoV-2 3CL^pro [2] (setting [5]) was below 100 nM; at SARS-CoV-2 3CL^pro [2] (FRET, read-out: IC50 values), below 100 nM.

Consider “(E)-7-(4-((4-((6-chloro-2-methyl-2H-indazol-5-yl)imino)-2,6-dioxy-3-(2,4,5-Trifluorobenzyl)-1,3,5-triazin-1-yl)methyl)-1H-1,2,3-triazol-1-yl)-N-(2-Preparation of (2,6-Dioxypiperidin-3-yl)-1-oxoisoquinolin-4-yl)heptamide [Compound 5]”, for which the DC50 on SARS-CoV-2 3CL^pro [1] (setting [3]) and on SARS-CoV-2 3CL^pro [1] (setting [4]) was below 100 nM throughout. For the same compound, the IC50 at SARS-CoV-2 3CL^pro [2] (setting [5]) lay within 100 to 1000 nM.

As for “(E)-7-(4-((4-((6-chloro-2-methyl-2H-indazol-5-yl)imino)-2,6-dioxy-3-(2,4,5-Trifluorobenzyl)-1,3,5-triazin-1-yl)methyl)-1H-1,2,3-triazol-1-yl)-N-(2-Preparation of (2,6-dioxopiperidin-3-yl)-1,3-dioxoisoindolin-4-yl)heptamide [Compound 11]”, the DC50 at SARS-CoV-2 3CL^pro [1] (setting [3]) lay within 100 to 1000 nM. On SARS-CoV-2 3CL^pro [2] (setting [5]), the IC50 was 100 to 1000 nM.

As for “(E)-8-(4-((4-((6-Chloro-2-methyl-2H-indazol-5-yl)imino)-2,6-dioxy-3-(2,4,5-Trifluorobenzyl)-1,3,5-triazin-1-yl)methyl)-1H-1,2,3-triazol-1-yl)-N-(2-Preparation of (2,6-dioxopiperidin-3-yl)-1,3-dioxoisoindolin-4-yl)octamide [Compound 12]”, on SARS-CoV-2 3CL^pro [1] (setting [3]), the DC50 fell in the range of 100 to 1000 nM. For the same compound, the IC50 on SARS-CoV-2 3CL^pro [2] (setting [5]) is 100 to 1000 nM.
